IC50 and Anti-cancer cell activity data for 51 compounds are collected here from patent EP4104902B1, “COMPOUNDS AND M[…] SAME” (priority 2020, dated 2021).

The structures appear in SMILES notation. pIC50: −log10 of the molar value.

The subject of assay [1] is recombinant rabies virus 1088 strain expressing Gaussia Luciferase (GLuc) (1088/GLuc). In kind it is cell-based. As to conditions: read-out: Anti-rabies activity.
Assay [2] relates to mouse neuroblastoma cell strain Neuro-2A. The assay can be described thus: Anti-cancer cell activity evaluation (minimum inhibitory concentration with respect to cells). The format is cell-based. Particulars: MIC, 3 days.
[3] abbreviates: compounds of formula XXIIB and formula XXIIF (continuation).

In the case of `CC(C)CN1C[C@@H]2C[C@H]3CN[C@]2(C(=O)NCc2ccc(Cl)cc2)[C@@H]1[C@@H]3CCc1ccccc1` (relative stereo) [IB-925], in assay [1], the pIC50 was > 5.30. The Anti-cancer cell activity result in assay [2] (compounds of formula XXIB) was “c (c if greater than 20 µM and less than or equal to 40 µM)”. On to `CC(C)CN1C[C@@H]2C[C@H]3CN[C@]2(C(=O)NCc2cccc(Cl)c2)[C@@H]1[C@@H]3CCc1ccccc1` (relative stereo) [IB-926], for which the pIC50 in assay [1] is > 5.30. In assay [2] (compounds of formula XXIB), the Anti-cancer cell activity result was “b (b if greater than 10 µM and less than or equal to 20 µM)”.

For `COc1ccc(CNC(=O)[C@]23NC[C@@H]4C[C@H]2CN(CC(C)C)[C@H]3[C@@H]4CCc2ccccc2)cc1` (relative stereo) [IB-927], the pIC50 in assay [1] is > 5.30. Also, in assay [2] (compounds of formula XXIB), the Anti-cancer cell activity entry is “c (c if greater than 20 µM and less than or equal to 40 µM)”. In the case of `Cc1ccc(CNC(=O)[C@]23NC[C@@H]4C[C@H]2CN(CC(C)C)[C@H]3[C@@H]4CCc2ccccc2)cc1` (relative stereo) [IB-928], the pIC50 in assay [1] was > 5.30. The Anti-cancer cell activity result in assay [2] (compounds of formula XXIB) was “c (c if greater than 20 µM and less than or equal to 40 µM)”. On to `CC(C)CN1C[C@@H]2C[C@H]3CN[C@]2(C(=O)NCc2ccc4ccccc4c2)[C@@H]1[C@@H]3CCc1ccccc1` (relative stereo) [IB-929], for which, in assay [1], the pIC50 was > 5.30. In addition, in assay [2] (compounds of formula XXIB), the Anti-cancer cell activity entry was “b (b if greater than 10 µM and less than or equal to 20 µM)”.

As to `CC(C)CN1C[C@@H]2C[C@H]3CN[C@]2(C(=O)NCc2ccccc2)[C@@H]1[C@@H]3CCCc1ccccc1` (relative stereo) [IB-930], the pIC50 in assay [1] is > 5.30. Besides, the Anti-cancer cell activity result in assay [2] (compounds of formula XXIB) is “c (c if greater than 20 µM and less than or equal to 40 µM)”. In the case of `CC(C)CN1C[C@@H]2C[C@H]3CN[C@]2(C(=O)NCc2cccc(Cl)c2)[C@@H]1[C@@H]3CCCc1ccccc1` (relative stereo) [IB-931], the pIC50 in assay [1] is > 5.30. For the same compound, in assay [2] (compounds of formula XXIB), the Anti-cancer cell activity result was “c (c if greater than 20 µM and less than or equal to 40 µM)”. With `CC(C)CN1C[C@@H]2C[C@H]3CN[C@]2(C(=O)NCc2cccc(F)c2)[C@@H]1[C@@H]3CCCc1ccccc1` (relative stereo) [IB-932], the pIC50 in assay [1] is > 5.30. Further, in assay [2] (compounds of formula XXIB), the Anti-cancer cell activity entry is “c (c if greater than 20 µM and less than or equal to 40 µM)”. In the case of `Cc1cccc(CNC(=O)[C@]23NC[C@@H]4C[C@H]2CN(CC(C)C)[C@H]3[C@@H]4CCCc2ccccc2)c1` (relative stereo) [IB-933], the pIC50 in assay [1] is > 5.30. Besides, the Anti-cancer cell activity entry in assay [2] (compounds of formula XXIB) is “b (b if greater than 10 µM and less than or equal to 20 µM)”. For `COc1cccc(CNC(=O)[C@]23NC[C@@H]4C[C@H]2CN(CC(C)C)[C@H]3[C@@H]4CCCc2ccccc2)c1` (relative stereo) [IB-934], in assay [1], the pIC50 was > 5.30. Moreover, the Anti-cancer cell activity result in assay [2] (compounds of formula XXIB) is “b (b if greater than 10 µM and less than or equal to 20 µM)”. Take `CC(C)CN1C[C@@H]2C[C@H]3CN[C@]2(C(=O)NCc2cccc(Cl)c2)[C@@H]1[C@@H]3CCCCc1ccccc1` (relative stereo) [IB-935]: in assay [1], the pIC50 is > 5.30. The Anti-cancer cell activity result in assay [2] (compounds of formula XXIB) is “c (c if greater than 20 µM and less than or equal to 40 µM)”.

For `CC(C)CN1C[C@@H]2C[C@H]3CN[C@]2(C(=O)NCc2cccc(F)c2)[C@@H]1[C@@H]3CCCCc1ccccc1` (relative stereo) [IB-936], the pIC50 in assay [1] is > 5.30. For the same compound, in assay [2] (compounds of formula XXIB), the Anti-cancer cell activity result was “b (b if greater than 10 µM and less than or equal to 20 µM)”. Regarding `Cc1cccc(CNC(=O)[C@]23NC[C@@H]4C[C@H]2CN(CC(C)C)[C@H]3[C@@H]4CCCCc2ccccc2)c1` (relative stereo) [IB-937], in assay [1], the pIC50 was > 5.30. Also, the Anti-cancer cell activity result in assay [2] (compounds of formula XXIB) is “c (c if greater than 20 µM and less than or equal to 40 µM)”. As to `CC(C)CN1C[C@@H]2C[C@H]3CN[C@]2(C(=O)NCc2ccccc2)[C@@H]1[C@@H]3CCCCc1ccccc1` (relative stereo) [IB-939], the pIC50 in assay [1] is > 5.30. The Anti-cancer cell activity result in assay [2] (compounds of formula XXIB) was “c (c if greater than 20 µM and less than or equal to 40 µM)”. In the case of `CC(C)CCN1C[C@@H]2C[C@H]3CN[C@]2(C(=O)NCc2cccc(F)c2)[C@@H]1[C@@H]3CCCc1ccccc1` (relative stereo) [IB-940], the pIC50 in assay [1] is > 5.30. The Anti-cancer cell activity entry in assay [2] (compounds of formula XXIB) was “c (c if greater than 20 µM and less than or equal to 40 µM)”. Consider `CC(C)CCN1C[C@H]2C[C@]3(C(=O)NCc4ccc(Cl)cc4)N=C[C@H]2[C@H]1[C@H]3Cc1ccccc1` (relative stereo) [IIF-326], for which the pIC50 in assay [1] is > 5.30. Also, the Anti-cancer cell activity entry in assay [2] (setting [3]) is “b (b if greater than 10 µM and less than or equal to 20 µM)”.

With `CC(C)CN1C[C@H]2C[C@]3(C(=O)NCc4ccc(Cl)cc4)N=C[C@H]2[C@H]1[C@H]3CCc1ccccc1` (relative stereo) [IIF-330], the pIC50 in assay [1] is > 5.30. In assay [2] (setting [3]), the Anti-cancer cell activity entry was “c (c if greater than 20 µM and less than or equal to 40 µM)”. For the compound `CC(C)CN1C[C@H]2C[C@]3(C(=O)NCc4cccc(Cl)c4)N=C[C@H]2[C@H]1[C@H]3CCc1ccccc1` (relative stereo) [IIF-331], in assay [1], the pIC50 was > 5.30. Besides, in assay [2] (setting [3]), the Anti-cancer cell activity entry is “c (c if greater than 20 µM and less than or equal to 40 µM)”. Consider `CC(C)CN1CC2CC3CNC2(C(=O)NCCc2ccccc2)C1C3CCc1ccccc1` (stereo not drawn) [IB-957], for which the pIC50 in assay [1] was > 5.30. Also, the Anti-cancer cell activity entry in assay [2] (compounds of formula XXIB) was “c (c if greater than 20 µM and less than or equal to 40 µM)”.

Regarding `CC(C)CN1CC2CC3CNC2(C(=O)NCc2cccc4ccccc24)C1C3CCc1ccccc1` (stereo not drawn) [IB-958], the pIC50 in assay [1] is > 5.30. For the same compound, in assay [2] (compounds of formula XXIB), the Anti-cancer cell activity result is “b (b if greater than 10 µM and less than or equal to 20 µM)”.

Take `O=C(O)CCNC(=O)C12CC3CN(CCO)C(C3CN1)C2Cc1cccc2ccccc12` (stereo not drawn) [IF-444]: in assay [1], the pIC50 is 4.52 to 5.00. Still for that read-out and setting: for `CC(C)CCN1CC2CC3(C(=O)NCc4ccc(O)cc4)NCC2C1C3CCC(=O)O` (stereo not drawn) [IF-445] the value was 4.52 to 5.00. Turning to `O=C(O)CCC1C2C3CNC1(C(=O)NCc1ccc(O)cc1)CC3CN2CC1CCCCC1` (stereo not drawn) [IF-447], the pIC50 in assay [1] is 4.52 to 5.00.

Consider `O=C(O)CCN1CC2CC3(C(=O)NCCO)NCC2C1C3Cc1cccc2ccccc12` (stereo not drawn) [IF-452], for which the pIC50 in assay [1] is 4.52 to 5.00. On the same count and under the same terms, for `CC(C)CNC(=O)C12CC3CN(CCC(=O)O)C(C3CN1)C2CCc1ccccc1` (stereo not drawn) [IF-454] the value was 4.52 to 5.00. Same read-out and setting: for `CC(C)CNC(=O)C12CC3CN(CCC(=O)O)C(C3CN1)C2Cc1ccc(O)cc1` (stereo not drawn) [IF-455] the value was 4.52 to 5.00; for `CC(C)CCC1C2C3CNC1(C(=O)NCc1ccc(O)cc1)CC3CN2CCC(=O)O` (stereo not drawn) [IF-458], 4.52 to 5.00; for `O=C(NCc1cccc2ccccc12)C12CC3CN(Cc4ccccc4)C(C3CN1)C2Cc1ccccc1` (stereo not drawn) [IF-805], 4.52 to 5.00.

As for `CC(C)CC1C2C3CNC1(C(=O)NCc1ccc(F)cc1)CC3CN2Cc1ccccc1` (stereo not drawn) [IF-807], the pIC50 in assay [1] is > 5.30. As to `CC(C)CN1CC2CC3(C(=O)NCc4ccc(F)cc4)NCC2C1C3Cc1ccccc1` (stereo not drawn) [IF-815], in assay [1], the pIC50 was > 5.30.

With `CC(C)CCN1CC2CC3(C(=O)NCCC(=O)O)NCC2C1C3CCc1ccccc1` (stereo not drawn) [IF-830], in assay [1], the pIC50 was 4.52 to 5.00. For the compound `COc1cccc(CNC(=O)C23CC4CN(CC(C)C)C(C4CN2)C3CCCc2ccccc2)c1` (stereo not drawn) [IF-894], in assay [1], the pIC50 is > 5.30. Also, the Anti-cancer cell activity entry in assay [2] (compounds of formula XXIF) is “c (c if greater than 20 µM and less than or equal to 40 µM)”.

On to `CC(C)CN1CC2CC3(C(=O)NCc4cccc(Cl)c4)NCC2C1C3CCCCc1ccccc1` (stereo not drawn) [IF-895], for which the pIC50 in assay [1] was > 5.30. In addition, in assay [2] (compounds of formula XXIF), the Anti-cancer cell activity result is “b (b if greater than 10 µM and less than or equal to 20 µM)”.

`CC(C)CN1CC2CC3(C(=O)NCc4cccc(F)c4)NCC2C1C3CCCCc1ccccc1` (stereo not drawn) [IF-896]: in assay [1], the pIC50 was > 5.30. Also, the Anti-cancer cell activity result in assay [2] (compounds of formula XXIF) is “b (b if greater than 10 µM and less than or equal to 20 µM)”.

Consider `Cc1cccc(CNC(=O)C23CC4CN(CC(C)C)C(C4CN2)C3CCCCc2ccccc2)c1` (stereo not drawn) [IF-897], for which, in assay [1], the pIC50 is > 5.30. The Anti-cancer cell activity result in assay [2] (compounds of formula XXIF) is “b (b if greater than 10 µM and less than or equal to 20 µM)”. With `CC(C)CC1C2C=NC3(C(=O)NCc4ccccc4)C(C2)CN(Cc2ccc(Cl)cc2)C13` (stereo not drawn) [IIB-83], the pIC50 in assay [1] is > 5.30. As to `CC(C)CC1C2C=NC3(C(=O)NCc4ccccc4)C(C2)CN(Cc2cccc(Cl)c2)C13` (stereo not drawn) [IIB-84], the pIC50 in assay [1] is > 5.30.

With `COc1ccc(CN2CC3CC4C=NC3(C(=O)NCc3ccccc3)C2C4CC(C)C)cc1` (stereo not drawn) [IIB-85], the pIC50 in assay [1] was 5.00 to 5.30.

Consider `Cc1ccc(CN2CC3CC4C=NC3(C(=O)NCc3ccccc3)C2C4CC(C)C)cc1` (stereo not drawn) [IIB-86], for which the pIC50 in assay [1] was 5.00 to 5.30. Same read-out and setting: under `CC(C)CC1C2C=NC3(C(=O)NCc4ccccc4)C(C2)CN(Cc2ccc(N(C)C)cc2)C13` (stereo not drawn) [IIB-94] stands 5.00 to 5.30; under `CN1CC2CC3C=NC2(C(=O)NCCc2cccc4cccnc24)C1C3Cc1ccccc1` (stereo not drawn) [IIB-329], > 5.30.

As to `CN1CC2CC3C=NC2(C(=O)NCCc2cccc4ncccc24)C1C3Cc1ccccc1` (stereo not drawn) [IIB-330], in assay [1], the pIC50 is > 5.30. The same measure, in the same setting: under `COc1ccc(CNC(=O)C23N=CC4CC2CN(CC(C)C)C3C4CCc2ccccc2)cc1` (stereo not drawn) [IIB-333] stands > 5.30; under `CC(C)CC1C2C3C=NC1(C(=O)NCc1ccccc1)CC3CN2Cc1ccc(Cl)cc1` (stereo not drawn) [IIF-83], > 5.30; under `CC(C)CC1C2C3C=NC1(C(=O)NCc1ccccc1)CC3CN2Cc1cccc(Cl)c1` (stereo not drawn) [IIF-84], 5.00 to 5.30. The same measure, in the same setting: for `COc1ccc(CN2CC3CC4(C(=O)NCc5ccccc5)N=CC3C2C4CC(C)C)cc1` (stereo not drawn) [IIF-85] the value was 5.00 to 5.30; for `Cc1ccc(CN2CC3CC4(C(=O)NCc5ccccc5)N=CC3C2C4CC(C)C)cc1` (stereo not drawn) [IIF-86], > 5.30. For the compound `CC(C)CC1C2C3C=NC1(C(=O)NCc1ccccc1)CC3CN2Cc1ccc(N(C)C)cc1` (stereo not drawn) [IIF-94], the pIC50 in assay [1] is 5.00 to 5.30. In the case of `CC(C)CC1C2C3C=NC1(C(=O)NCc1ccccc1)CC3CN2Cc1ccc(C(C)(C)C)cc1` (stereo not drawn) [IIF-95], the pIC50 in assay [1] is > 5.30. On the same count and under the same terms, under `CC(C)CC1C2C3C=NC1(C(=O)NCc1ccccc1)CC3CN2Cc1ccc(OC(F)(F)F)cc1` (stereo not drawn) [IIF-96] stands 5.00 to 5.30; under `CCOc1ccc(CN2CC3CC4(C(=O)NCc5ccccc5)N=CC3C2C4CC(C)C)cc1` (stereo not drawn) [IIF-97], 4.52 to 5.00.
